# Laboratory results taken from patent US10398142B2, “Polycationic amphiphiles as antimicrobial agents” (priority 2013, dated 2019).
# Read-outs that look alike come from different tables or passages of the source.
# Columns and labels:
# [1] = test system: S. aureus (MSSA, SH1000) biofilms; assay: Minimum biofilm eradication concentration (MBEC), regrowth assay; assay type: cell-based, Staphylococcus aureus; conditions: Table 5; SH1000
# Summary of the method: (§1)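 Static 24 h biofilms at 37° C. (BHI for S. aureus, Todd Hewitt for E. faecalis), then 16 h compound exposure, PBS washes and overnight regrowth in fresh media. MBEC is the lowest concentration giving final OD595 below 0.1; four replicates per concentration.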
# HA-MRSA (ATCC 33591) = assay: Minimum inhibitory concentration (MIC), broth microdilution; assay type: cell-based, Staphylococcus aureus; conditions: Table 4; ATCC 33591; read-out: MIC HA-MRSA
# Summary of the method: (§2)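 Two-fold serial dilutions (twelve concentrations) from aqueous stock; inoculum ca. 10^6 cfu/mL in Mueller-Hinton media, static incubation at 37 °C for 72 h. MIC read visually as lowest concentration with no visible growth, majority of three independent experiments.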
# CA-MRSA (USA300-0114) [2] = assay: as above; assay type: cell-based, Staphylococcus aureus; conditions: Table 4; USA300-0114; read-out: MIC CA-MRSA
# Summary of the method: as §2
# [3] = test system: Enterococcus faecalis (OG1RF); assay: as above; assay type: cell-based; conditions: Table 3; read-out: MIC E. faecalis
# Summary of the method: (§3)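 Broth microdilution: two-fold serial dilutions (twelve concentrations) mixed 1:1 with overnight cultures diluted to ca. 10^6 cfu/mL in Mueller-Hinton media, incubated statically at 37° C for 72 hours. MIC is lowest concentration with no growth visible to the naked eye, majority of three independent experiments.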
# [4] = test system: Staphylococcus aureus MSSA (SH1000); assay: as above; assay type: cell-based
# Summary of the method: as §3
# [5] = test system: Pseudomonas aeruginosa (PAO1); assay: as above; assay type: cell-based; conditions: Table 3; read-out: MIC P. aeruginosa
# Summary of the method: as §3
# [6] = test system: Escherichia coli (MC4100); assay: as above; assay type: cell-based; conditions: Table 3; read-out: MIC E. coli
# Summary of the method: as §3
# [7] = test system: CA-MRSA (USA300-0114) biofilms; assay: Minimum biofilm eradication concentration (MBEC), regrowth assay; assay type: cell-based, Staphylococcus aureus; conditions: Table 5; USA300-0114
# Summary of the method: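 CA-MRSA USA300-0114 biofilms grown statically 24 h at 37 °C in BHI, then exposed to compound for 16 h at 37 °C. After PBS washes, biofilms regrown overnight in fresh media; MBEC is the lowest concentration giving OD595 below 0.1, four replicates per concentration.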
# [8] = test system: red blood cells (defibrinated sheep blood); assay: Hemolysis assay (Lysis20); conditions: Table 4; concentration at which less than 20% of red blood cells are lysed
# Summary of the method: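 Defibrinated sheep red blood cells were incubated with compounds serially diluted in PBS, and the suspensions were read by OD. 1% Triton X served as 100% lysis and PBS as 0% lysis. Lysis20 is the concentration (μM) at which less than 20% of cells are lysed.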
# [9] = test system: Staphylococcus aureus, Enterococcus faecalis, Escherichia coli and Pseudomonas aeruginosa; assay: MIC, summary statements over the four bacteria; assay type: cell-based; conditions: comparison of MIC values
# Description: The term “minimum inhibitory concentration (MIC)” means the lowest concentration of an antimicrobial agent that will inhibit the visible growth of a microorganism after overnight incubation. MIC values against bacteria, for example, the Gram-positive Staphylococcus aureus and Enterococcus faecalis and the Gram-negative Escherichia coli and Pseudomonas aeruginosa were determined by standard methods. See also P. A. Wayne, Methods for Dilution Antimicrobial Tests for Bacteria that Grow Aerobically; Approved Standard, Ninth Edition, 2012, CLSI Document M07-A9, Vol. 32 No. 2.
# With nearly three-dozen amphiphiles varying in structure and cationic nature synthesized, minimum inhibitory concentration (MIC) values against the Gram-positive Staphylococcus aureus and Enterococcus faecalis and the Gram-negative Escherichia coli and Pseudomonas aeruginosa were determined by standard methods. […] The commercially available antibacterial agent benzalkonium chloride (benzyldimethyldodecylammonium chloride, Bn,12) was tested for comparison. The broth microdilution for determining MIC values was performed as previously reported.
# MIC variation mostly hinged on the length of alkyl chain, where the dodecyl chain was generally found to be optimal. […]
# E. faecalis biofilms = assay: Minimum biofilm eradication concentration (MBEC), regrowth assay; assay type: cell-based, Enterococcus faecalis; conditions: Table 5
# Summary of the method: as §1
# MSSA (SH1000) = assay: Resistance development, liquid culture serial passage; assay type: cell-based, Staphylococcus aureus; conditions: over 24 days (>500 generations)
# Description: (§4) Resistance development such as liquid culture resistance assay was performed. […] Once a day, an aliquot of bacterial culture from the highest concentration allowing bacterial growth was diluted 1:10,000 in fresh media containing a range of antibacterial compound. This process was repeated for several hundred generations.
# (§5) Resistance Development Assays: Liquid culture serial passage protocols, in which bacteria are successively grown at sub-lethal concentrations of antibacterial compound, were employed.
# CA-MRSA (USA300-0114) [10] = assay: as above; assay type: cell-based, Staphylococcus aureus; conditions: over 24 days (>500 generations)
# Description: as §4, §5
# [11] = Table 3, read-out: MIC S. aureus
# [12] = Table 4, SH1000, read-out: MIC MSSA
Compound,MBEC MSSA [1] [µM],MIC (HA-MRSA (ATCC 33591)) [µM],MIC (CA-MRSA (USA300-0114) [2]) [µM],MIC [3] [µM],"MIC [4, 11] [µM]","MIC [4, 12] [µM]",MIC [5] [µM],MIC [6] [µM],MBEC CA-MRSA [7] [µM],Lysis20 [8] [µM],"fold more bioactive than (N4-12,0,0,0) [9]",MBEC E. faecalis (E. faecalis biofilms) [µM],"resistance in serial passage, MSSA (MSSA (SH1000))","resistance in serial passage, CA-MRSA (USA300-0114) (CA-MRSA (USA300-0114) [10])"
"CCCCCCCCCCCC[N+](C)(C)CCN(C)CCN(C)CC[N+](C)(C)CCCCCCCCCCCC.[Br-].[Br-] [N4-12,0,0,12]",50,1,1,1,1,1,4,1,100,4,about 8 fold,75 ± 25,,
"C=CC[N+](C)(CC[N+](C)(C)CCCCCCCCCCCC)CC[N+](C)(CC=C)CC[N+](C)(C)CCCCCCCCCCCC.[Br-].[Br-].[Br-].[Br-] (centres unmarked) [N4-12,3A,3A,12]",100,0.5,1,1,1,1,2,1,150 ± 50,8,about 8 fold,200,No resistance was observed,No resistance was observed
